Laboratory results: patent publication EP4692091A1, “CA[…], AND PHARMACEUTICAL COMPOSITION, PREPARATION METHOD THEREFOR AND USE THEREOF” (Changchun Genescience Pharmaceutical Co., Ltd., priority 2023, dated 2024)

Assays:
Assay type in all cases: cell-based
MDA-MB-468 = assay: Inhibition of proliferation of MDA-MB-468 cells by test compounds (CellTiter-Glo, 72 h); details: MDA-MB-468, 72 h incubation
Protocol: 3: Test method • (1) Cell plating: first, tumor cells MDA-MB-468 were cultured using a corresponding culture medium, trypsinized, centrifuged, resuspended for counting, adjusted to an appropriate concentration, and then plated on a 384-well plate. • (2) Co-incubation of the compounds and tumor cells: after the cells adhered to the wall, 100 nL of a diluted bioactive substance (test compound) was added to the cell culture plate using ECHO, the final concentration of DMSO in wells of the cell plate was 0.33%, and the incubation was performed in an incubator at 37°C with […] for 72 h. • (3) After the incubation was complete, 30 µL of a CTG reagent (CelltiterGlo kit) was added to each well. The culture was oscillated on a fast oscillator for 2 min, centrifuged at 1,000 rpm for 1 min, and kept away from light at room temperature for 30 min. The chemiluminescence signal value was read using an Envision instrument. • (4) Cell viability detection: IC50 was calculated using GraphPad Prism 8 software, and the IC50 of the compounds was obtained using the following nonlinear fitting formula (see Table 2): • 6. Y=Bottom+(Top-Bottom)/(1+10^((LogIC50-X)*HillSlope)) • 7. […] Table 2 Antiproliferative activity of test compounds on MDA-MB-468

SK-BR-3 = assay: Inhibition of proliferation of SK-BR-3 cells by compounds (CellTiter-Glo, 72 h); details: SK-BR-3, 72 h incubation
Protocol: 3: Test method (1) Cell plating: first, tumor cells SK-BR-3 were cultured using a corresponding culture medium, trypsinized, centrifuged, resuspended for counting, adjusted to an appropriate concentration, and then plated on a 384-well plate. (2) Co-incubation of the compounds and tumor cells: after the cells adhered to the wall, 100 nL of a diluted bioactive substance (test compound) was added to the cell culture plate using ECHO, the final concentration of DMSO in wells of the cell plate was 0.33%, and the incubation was performed in an incubator at 37°C with 5% CO2 for 72 h. (3) After the incubation was complete, 30 µL of a CTG reagent (CelltiterGlo kit) was added to each well. The culture was oscillated on a fast oscillator for 2 min, centrifuged at 1,000 rpm for 1 min, and kept away from light at room temperature for 30 min. The chemiluminescence signal value was read using an Envision instrument. (4) Cell viability detection: IC50 was calculated using GraphPad Prism 8 software, and the IC50 of the compounds was obtained using the following nonlinear fitting formula (see Table 1) : 1. Y=Bottom+(Top-Bottom)/(1+10^((LogIC50-X)*HillSlope)) 2. […] Table 1 Antiproliferative activity of test compounds on SK-BR-3

NCI-N87 = assay: Inhibition of proliferation of NCI-N87 cells by test compounds (CellTiter-Glo, 72 h); details: NCI-N87, 72 h incubation
Protocol: 3: Test method (1) Cell plating: first, tumor cells NCI-N87 were cultured using a corresponding culture medium, trypsinized, centrifuged, resuspended for counting, adjusted to an appropriate concentration, and then plated on a 384-well plate. (2) Co-incubation of the compounds and tumor cells: after the cells adhered to the wall, 100 nL of a diluted bioactive substance (test compound) was added to the cell culture plate using ECHO, the final concentration of DMSO in wells of the cell plate was 0.33%, and the incubation was performed in an incubator at 37°C with […] for 72 h. (3) After the incubation was complete, 30 µL of a CTG reagent (CelltiterGlo kit) was added to each well. The culture was oscillated on a fast oscillator for 2 min, centrifuged at 1,000 rpm for 1 min, and kept away from light at room temperature for 30 min. The chemiluminescence signal value was read using an Envision instrument. (4) Cell viability detection: IC50 was calculated using GraphPad Prism 8 software, and the IC50 of the compounds was obtained using the following nonlinear fitting formula (see Table 3) : 11. Y=Bottom+(Top-Bottom)/(1+10^((LogIC50-X)*HillSlope)) 12. […] Table 3 Antiproliferative activity of test compounds on cells NCI-N87

Compound	IC50 (MDA-MB-468)	IC50 (SK-BR-3)	IC50 (NCI-N87)	IC50 (MDA-MB-468; Homo sapiens, MDA-MB-468, 72 h)	IC50 (SK-BR-3; Homo sapiens, SK-BR-3, 72 h)	IC50 (NCI-N87; Homo sapiens, NCI-N87, 72 h)
C=Cc1c(F)cc2nc3c(c4c2c1CCC4NC(=O)C[C@@H](C)O)Cn1c-3cc2c(c1=O)COC(=O)[C@]2(O)CC (stereo partly drawn) [7-2, (R)-N-((1R,9S)-9-ethyl-5-fluoro-9-hydroxy-10,13-dioxo-4-vinyl-2,3,9,10,13,15-hexahydro-1H,12H-benzo[de]pyrano[3',4',6,7]indolizino[1,2-b]quinolin-1-yl)-3-hydroxybutanamide]	4.4 nM	7.6 nM	4.9 nM	–	–	–
CC[C@@]1(O)C(=O)OCc2c1cc1n(c2=O)Cc2c-1nc1cc(F)c(OCC(F)(F)F)c3c1c2C(NC(=O)C[C@@H](C)O)CC3 (stereo partly drawn) [8-1, (R)-N-((1S,9S)-9-ethyl-5-fluoro-9-hydroxy-10,13-dioxo-4-(2,2,2-trifluoroethoxy)-2,3,9,10,13,15-hexahydro-1H,12H-benzo[de]pyrano[3',4',6,7]indolizino[1,2-b]quinolin-1-yl)-3-hydroxybutanamide]	13 nM	44 nM	4.2 nM	–	–	–
CC[C@@]1(O)C(=O)OCc2c1cc1n(c2=O)Cc2c-1nc1cc(F)c(C)c3c1c2[C@H](NC(=O)C[C@@H](C)O)CCO3 [24-1, (R)-N-((1R,10S)-10-ethyl-6-fluoro-10-hydroxy-5-methyl-11,14-dioxo-2,3,10,11,14,16-hexahydro-1H,13H-oxepino[4,3,2-de]pyrano[3',4':6,7]indolizino[1,2-b]quinolin-1-yl)-3-hydroxybutanamide]	–	–	–	38 nM	47 nM	65 nM
CC[C@@]1(O)C(=O)OCc2c1cc1n(c2=O)Cc2c-1nc1cc(F)c(C)c3c1c2[C@@H](NC(=O)C[C@@H](C)O)CCO3 [24-2, (R)-N-((1S,10S)-10-ethyl-6-fluoro-10-hydroxy-5-methyl-11,14-dioxo-2,3,10,11,14,16-hexahydro-1H,13H-oxepino[4,3,2-de]pyrano[3',4':6,7]indolizino[1,2-b]quinolin-1-yl)-3-hydroxybutanamide]	–	–	–	14 nM	16 nM	24 nM
CC[C@@]1(O)C(=O)OCc2c1cc1n(c2=O)Cc2c-1nc1cc(F)c(C)c3c1c2[C@@H](NC(=O)[C@H](O)C1CC1)CCO3 [35-1, (R)-2-cyclopropyl-N-((1S,10S)-10-ethyl-6-fluoro-10-hydroxy-5-methyl-11,14-dioxo-2,3,10,11,14,16-hexahydro-1H,13H-oxepino[4,3,2-de]pyrano[3',4':6,7]indolizino[1,2-b]quinolin-1-yl)-2-hydroxyacetamide]	–	–	–	12 nM	16 nM	14 nM
CC[C@@]1(O)C(=O)OCc2c1cc1n(c2=O)Cc2c-1nc1cc(F)c(C)c3c1c2[C@@H](NC(=O)[C@@H](O)C1CC1)CCO3 [35-2, (S)-2-cyclopropyl-N-((1S,10S)-10-ethyl-6-fluoro-10-hydroxy-5-methyl-11,14-dioxo-2,3,10,11,14,16-hexahydro-1H,13H-oxepino[4,3,2-de]pyrano[3',4':6,7]indolizino[1,2-b]quinolin-1-yl)-2-hydroxyacetamide]	–	–	–	9 nM	9 nM	10 nM
CC[C@@H](O)CC(=O)N[C@H]1CCCc2c(C)c(F)cc3nc4c(c1c23)Cn1c-4cc2c(c1=O)COC(=O)[C@]2(O)CC [36-1, (R)-N-((1S,10S)-10-ethyl-6-fluoro-10-hydroxy-5-methyl-11,14-dioxo-1,2,3,4,10,11,14,16-octahydro-13H-cyclohepta[3',4':6,7]indolizino[1,2-b]quinolin-1-yl)-3-hydroxypentanamide]	14 nM	9.2 nM	8.5 nM	–	–	–
CC[C@H](O)CC(=O)N[C@H]1CCCc2c(C)c(F)cc3nc4c(c1c23)Cn1c-4cc2c(c1=O)COC(=O)[C@]2(O)CC [36-2, (S)-N-((1S,10S)-10-ethyl-6-fluoro-10-hydroxy-5-methyl-11,14-dioxo-1,2,3,4,10,11,14,16-octahydro-13H-cyclohepta[3',4':6,7]indolizino[1,2-b]quinolin-1-yl)-3-hydroxypentanamide]	6.4 nM	4.4 nM	3.9 nM	–	–	–
CC[C@@]1(O)C(=O)OCc2c1cc1n(c2=O)Cc2c-1nc1cc(F)c(C)c3c1c2[C@@H](NC(=O)C[C@@H](O)C(C)C)CCC3 [37-2, (R)-N-((1S,10S)-10-ethyl-6-fluoro-10-hydroxy-5-methyl-11,14-dioxo-1,2,3,4,10,11,14,16-octahydro-13H-cyclohepta[3',4':6,7]indolizino[1,2-b]quinolin-1-yl)-3-hydroxy-4-methylpentanamide]	6.6 nM	6.6 nM	3.2 nM	–	–	–
(R)-2-cyclopropyl-N-((1S,10S)-5-cyclopropyl-10-ethyl-6-fluoro-10-hydroxy-11,14-dioxo-1,2,3,4,10,11,14,16-octahydro-13H-cyclohepta[3',4':6,7]indolizino[1,2-b]quinolin-1-yl)-2-hydroxyacetamide [33-1]	6 nM	7.8 nM	8 nM	–	–	–
(R)-3-cyclopropyl-N-((1S,10S)-10-ethyl-6-fluoro-10-hydroxy-5-methyl-11,14-dioxo-1,2,3,4,10,11,14,16-octahydro-13H-cyclohepta[3',4':6,7]indolizino[1,2-b]quinolin-1-yl)-3-hydroxypropanamide [38-1]	13 nM	12 nM	7.5 nM	–	–	–
(S)-2-cyclopropyl-N-((1S,10S)-5-cyclopropyl-10-ethyl-6-fluoro-10-hydroxy-11,14-dioxo-1,2,3,4,10,11,14,16-octahydro-13H-cyclohepta[3',4':6,7]indolizino[1,2-b]quinolin-1-yl)-2-hydroxyacetamide [33-2]	5 nM	8.4 nM	9 nM	–	–	–
(S)-3-cyclopropyl-N-((1S,9S)-4-cyclopropyl-9-ethyl-5-fluoro-9-hydroxy-10,13-dioxo-2,3,9,10,13,15-hexahydro-1H,12H-benzo[d]pyrano[3',4':6,7]indolizino[1,2-b]quinolin-1-yl)-3-hydroxypropanamide [34-1]	4 nM	5.1 nM	6 nM	–	–	–
(S)-3-cyclopropyl-N-((1S,10S)-10-ethyl-6-fluoro-10-hydroxy-5-methyl-11,14-dioxo-1,2,3,4,10,11,14,16-octahydro-13H-cyclohepta[3',4':6,7]indolizino[1,2-b]quinolin-1-yl)-3-hydroxypropanamide [38-2]	5.7 nM	5.4 nM	2.9 nM	–	–	–
(S)-N-((1S,10S)-10-ethyl-6-fluoro-10-hydroxy-5-methyl-11,14-dioxo-1,2,3,4,10,11,14,16-octahydro-13H-cyclohepta[3',4':6,7]indolizino[1,2-b]quinolin-1-yl)-3-hydroxy-4-methylpentanamide [37-1]	19 nM	19 nM	8.6 nM	–	–	–
